What was measured:
[1] = Risks of harmfulness for the aquatic environment / bioaccumulation; set-up: key: −=harmful demonstrated; +=slight risk; ++=very slight risks
From the text: For each of Compositions A to E, the characteristics of odor (“ODOR”), of stability at alkaline pH, i.e. at a pH of 9 (“STAB.”) and of risks of harmfulness in terms of protection of the aquatic environment/bioaccumulation (“BIO.”) are taken up in the table below according to the following notation: […]

[2] = compulsory labelings R51/R53; cited from earlier work
[3] = Degreasing of steel sheets with an impregnated cotton pad; set-up: key to degreasing grade: Grade=1: visible residual presence of a thin greasy film; Grade=2: visible residual presence of small greasy spots; Grade=3: visible absence of fatty substance (degreased sheet); settings: for OVERALL GRADE (/10): from the number of the 9 fatty substances with grade 3
From the text: Steel sheets covered with a thin, uniform film of different greases, lubricants or straight cutting oils commonly used in the metal-processing industry are degreased.
The performances of these 7 compositions are compared for 9 commercial greases and oils of different chemical mixtures.
For the purpose of the evaluation, a cotton pad is impregnated with the test composition and then this cotton pad is brought into contact with a thin and uniform film of fatty substances deposited on the surface of a steel sheet. This operation is repeated twice. The steel sheet is subsequently rinsed with cold water, so as to remove the solvent. The degreasing effect is subsequently graded as follows:
Grade=1: visible residual presence of a thin greasy film,
Grade=2: visible residual presence of small greasy spots,
Grade=3: visible absence of fatty substance (degreased sheet).
For each of Compositions 1 to 7, an “overall grade” is assigned to the function of the number of fatty substances for which the composition in question has not made it possible to achieve the grade of 3. This overall grade, with a maximum value of 10, is assigned in the following way:
For each Composition 1 to 7, the grade obtained a) for the specific degreasing of each of the fatty substances FS1 to FS9 deposited (grade from 1 to 3) and b) overall, as degreasing composition (grades from 6/10 to 10/10) is thus taken up in the table below.

[4] = Ready biodegradability, OECD No. 301 A (DOC Die-away Test); settings: at 28 days
man = settings: previously described advantages; cited from earlier work
[5] = test system: aquatic organisms, such as bacteria, freshwater algae, daphnia and freshwater fish; assay: Toxicity for aquatic organisms
[6] = Flammability / flashpoint of the compositions; type: physicochemical
[7] = Aerobic inherent biodegradability, OECD 302 B (Zahn-Wellens EMPA Test); settings: at 28 days
From the text: The biodegradability is here measured according to the process, hereinafter denoted “OECD 302 B”, recommended by the OECD under the following number and following title: No. 302 B—Inherent Biodegradability: Zahn—Wellens EMPA Test.

[8] = FS 2 = mixture of petroleum mineral oils
[9] = FS 4 = molybdenum disulfide grease
[10] = FS 5 = mixture of mineral oil, of paraffinic hydrocarbons and of graphite
[11] = FS 6 = polydimethylsiloxane oil
[12] = FS 7 = mutifraction oily mixture
[13] = FS 8 = biostable polyvalent microemulsion
[14] = FS 9 = nonchlorinated special lubricant

flashpoint [6]	Molecule	BIO. (risks of harmfulness, protection of the aquatic environment/bioaccumulation) [1]	toxicity for the environment [2]	degreasing grade ([3]; FS 1 = paraffinic mineral oil)	degreasing grade [3, 8]	degreasing grade ([3]; FS 3 = food-grade mineral oil)	degreasing grade [3, 9]	degreasing grade [3, 10]	degreasing grade [3, 11]	degreasing grade [3, 12]	degreasing grade [3, 13]	degreasing grade [3, 14]	OVERALL GRADE (/10) [3]	ready biodegradability [4]	irritant nature and toxicity to man (man)	toxicity for aquatic organisms [5]	aerobic inherent biodegradability [7]
	2,2,4-trimethyl-1,3-pentanediol monoisobutyrate [Composition A]	−															
	ClCCl [Composition 2, dichloromethane]		a certain toxicity	3	3	3	3	3	3	3	3	3	10 /10				
48 °C	C=C(C)[C@H]1CC=C(C)CC1 [Composition 3, dipentene]			3	3	3	3	3	3	3	2	3	9 /10				
	ClC=C(Cl)Cl [Composition 1, trichloroethylene]		a certain toxicity	3	3	3	3	3	3	3	3	3	10 /10				
46 °C	CCOC(=O)C(C)O (stereo not shown) [Composition 4, ethyl lactate]			3	3	3	3	2	3	3	2	3	8 /10				

Molecule	flashpoint [6]	BIO. (risks of harmfulness, protection of the aquatic environment/bioaccumulation) [1]	toxicity for the environment [2]	degreasing grade ([3]; FS 1 = paraffinic mineral oil)	degreasing grade [3, 8]	degreasing grade ([3]; FS 3 = food-grade mineral oil)	degreasing grade [3, 9]	degreasing grade [3, 10]	degreasing grade [3, 11]	degreasing grade [3, 12]	degreasing grade [3, 13]	degreasing grade [3, 14]	OVERALL GRADE (/10) [3]	ready biodegradability [4]	irritant nature and toxicity to man (man)	toxicity for aquatic organisms [5]	aerobic inherent biodegradability [7]
CO[C@H]1CO[C@H]2[C@@H]1OC[C@H]2OC [Composition 5, dimethyl isosorbide]	120 °C	++		3	3	2	3	2	2	3	2	3	6 /10	~25%	absence of irritant nature and of toxicity to man	absence of toxicity for aquatic organisms	~36%

Reference: patent US8080115B2, “Method for the surface treatment of a metallic or fibrous material” (priority 2005, dated 2011)
